Literature values, collected in patent publication US9951025B2, “Halogenopyrazoles as inhibitors of thrombin” (VERSEON CORPORATION, priority 2013, dated 2018).
Non-standard residues stand in square brackets, D forms with d. No end group written: not given here. Oic = O=C(O)[C@@H]1C[C@@H]2CCCC[C@@H]2N1; Phe(4-Me) = Cc1ccc(C[C@H](N)C(=O)O)cc1

Experiments:
[1] = after 7 weeks of administration; cited from earlier work
malignant breast tumors = conditions: cited from earlier work
lung fibroblasts = conditions: mouse, in vivo; cited from earlier work
[2] = cited from earlier work
[3] = system: prostate cancer cell line PC-3; conditions: PC-3, concentration dependent manner; cited from earlier work
tumor = conditions: cited from earlier work
lung metastases = conditions: administered prior to cancer cell inoculation; cited from earlier work
[4] = in vivo; cited from earlier work
[5] = intrathecal, cited from earlier work

## CC(=O)Nc1c(-c2ccccc2)cccc1S(=O)(=O)N[C@@H](CCCc1ccc(N)cn1)C(=O)N1CCC(=C(F)F)CC1 [SSR182289]
[1]
  liver fibrogenesis: decreased liver fibrogenesis significantly

## CCCCCCOC(=O)NC(=N)c1ccc(NCc2nc3cc(C(=O)N(CCC(=O)OCC)c4ccccn4)ccc3n2C)cc1 [dabigatran etexilate]
Malignant breast tumors; mouse, in vivo
  invasion and metastasis of malignant breast tumors: inhibited
  reduction of tumor cells in the blood and liver micrometastases: 50-60%
Malignant breast tumors; treated mice, 4 weeks
  weight loss: no weight loss
Lung fibroblasts
  profibrotic events in lung fibroblasts, including production of collagen and connective tissue growth factor: reduced

## N=C(N)c1ccc(CNC(=O)[C@@H]2CCN2C(=O)[C@H](NCC(=O)O)C2CCCCC2)cc1 [melagatran]
[2]; at 3 months
  kidney graft survival: drastically improved
[2]; kidney transplant model
  ischemia reperfusion injury: greatly reduced

## [dR][Oic]P[dA][Phe(4-Me)]
[3]
  thrombin-stimulated invasion: block
tumor; compared to untreated mice
  overall tumor weight: reduced
tumor; mice dosed through drinking water
  rate of tumor growth: reduced

## hirudin
Lung metastases
  number of lung metastases: dramatically reduced
[4]
  disease severity: dramatic improvement
[5]; for 7 days
  pain responses: curbed
[5]
  development of neuropathic pain: prevented
